Structures can show the parent of a compound that is named as a salt.
Key:
[1] = biological target: T1, human recombinant serotonin 5-HT2A receptor (Homo sapiens, UniProt P28223); test: Binding affinity for serotonin 5-HT2A receptor ([3H]Ketanserin); conditions: CHO-K1 expressed receptor, 1 nM [3H]Ketanserin
T1 construct: purchased PerkinElmer Life and Analytical Sciences, USA; host or cells: CHO-K1
Method: Receptor binding affinities of the compounds for serotonin receptors were measured by the method described in the literature [Park W K et al., Pharmacol Biochem Behav. 2005, 82(2), 361-372].
For serotonin 5-HT2A binding, an aliquot of human recombinant serotonin 5-HT2A receptor (PerkinElmer Life and Analytical Sciences, USA) expressed in CHO-K1 cells (5 ug/well) and 1 nM [^3H]Ketanserin (PerkinElmer) were used in the presence of mianserin (20 uM) as nonspecific. The reaction mixture was incubated for 60 min at 27 using 50 mM Tris-HCl (pH 7.4) buffer containing 4 mM CaCl2 and 0.1% ascorbic acid, and harvested through filtermate A glass fiber filter (Wallac, Finland) presoaked in 0.5% polyethyleneimine (PEI) by microbeta filtermate-96 harvester (PerkinElmer) to terminate the reaction, and then washed with ice cold 50 mM Tris-HCl buffer solution (pH 7.4). The filter was then covered with MeltiLex, sealed in a sample bag, dried in an oven. The radioactivity retained in the filter was finally counted using MicroBeta Plus (Wallac).
(§1) The binding affinity (IC50) of a compound for the receptor was calculated by computerized nonlinear regression analysis (GraphPad Prism Program, San Diego, USA) using 7-8 varied concentrations of the compound run in duplicate tubes.

[2] = biological target: T2, human serotonin transporter (Homo sapiens, UniProt P31645); test: Binding affinity for serotonin transporter ([3H]Imipramine); conditions: HEK-293 membranes, 2 nM [3H]Imipramine
T2 construct: purchased PerkinElmer; host or cells: HEK-293
Method: For serotonin transporter binding assays, a reaction mixture with a final volume of 0.25 ml was prepared by mixing a test compound, human serotonin transporter membrane expressed in HEK-293 cells (PerkinElmer, 5 ug/well), [^3H]Imipramine (PerkinElmer, 2 nM) and 50 mM Tris-HCl (pH 7.4) buffer containing 120 mM NaCl and 5 mM KCl. The reaction mixture was incubated for 30 min at 27, and harvested through filtermate. A glass fiber filter presoaked in 0.5% PEI with ice cold 50 mM Tris-HCl buffer (pH 7.4) containing 0.9% NaCl.

[3] = biological target: T3, human recombinant 5-HT2C receptor (Homo sapiens, UniProt P28335); test: Binding affinity for serotonin 5-HT2C receptor ([3H]Mesulergine); conditions: CHO-K1 membranes, 1.3 nM [3H]Mesulergine
T3 construct: purchased PerkinElmer
T3 sequence (P28335 33-458): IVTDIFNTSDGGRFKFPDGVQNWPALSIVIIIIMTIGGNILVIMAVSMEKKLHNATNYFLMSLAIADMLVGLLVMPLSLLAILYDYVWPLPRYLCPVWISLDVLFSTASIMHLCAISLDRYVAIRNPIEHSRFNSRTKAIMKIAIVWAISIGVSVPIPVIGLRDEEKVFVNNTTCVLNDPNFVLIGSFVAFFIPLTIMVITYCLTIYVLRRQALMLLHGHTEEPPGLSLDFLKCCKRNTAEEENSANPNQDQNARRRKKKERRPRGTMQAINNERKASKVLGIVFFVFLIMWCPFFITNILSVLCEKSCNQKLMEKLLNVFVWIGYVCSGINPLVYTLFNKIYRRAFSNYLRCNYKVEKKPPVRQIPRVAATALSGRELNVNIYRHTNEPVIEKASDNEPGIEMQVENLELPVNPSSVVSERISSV
Method: Receptor binding affinities of the compounds for serotonin receptors were measured by the method described in the literature [Park W K et al., Pharmacol Biochem Behav.
as §1
Nonspecific binding was determined using 100 uM mianserin. The incubations were performed for 60 min at 27, and these were terminated by rapid filtration through filtermate. A glass fiber filter presoaked in 0.5% PEI.

T1 sequence (P28223 whole entry): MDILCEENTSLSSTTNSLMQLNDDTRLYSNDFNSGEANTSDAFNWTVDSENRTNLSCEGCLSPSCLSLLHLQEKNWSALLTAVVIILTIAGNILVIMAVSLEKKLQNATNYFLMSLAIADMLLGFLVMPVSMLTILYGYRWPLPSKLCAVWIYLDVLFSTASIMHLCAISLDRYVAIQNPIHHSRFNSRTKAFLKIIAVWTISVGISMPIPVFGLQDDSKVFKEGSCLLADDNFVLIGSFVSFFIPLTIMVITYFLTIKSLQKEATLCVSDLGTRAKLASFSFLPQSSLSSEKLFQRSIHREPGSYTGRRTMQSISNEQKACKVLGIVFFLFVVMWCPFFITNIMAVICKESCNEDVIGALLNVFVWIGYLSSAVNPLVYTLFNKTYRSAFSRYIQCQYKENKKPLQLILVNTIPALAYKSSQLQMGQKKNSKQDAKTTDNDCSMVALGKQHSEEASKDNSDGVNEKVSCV
T2 sequence (P31645 whole entry): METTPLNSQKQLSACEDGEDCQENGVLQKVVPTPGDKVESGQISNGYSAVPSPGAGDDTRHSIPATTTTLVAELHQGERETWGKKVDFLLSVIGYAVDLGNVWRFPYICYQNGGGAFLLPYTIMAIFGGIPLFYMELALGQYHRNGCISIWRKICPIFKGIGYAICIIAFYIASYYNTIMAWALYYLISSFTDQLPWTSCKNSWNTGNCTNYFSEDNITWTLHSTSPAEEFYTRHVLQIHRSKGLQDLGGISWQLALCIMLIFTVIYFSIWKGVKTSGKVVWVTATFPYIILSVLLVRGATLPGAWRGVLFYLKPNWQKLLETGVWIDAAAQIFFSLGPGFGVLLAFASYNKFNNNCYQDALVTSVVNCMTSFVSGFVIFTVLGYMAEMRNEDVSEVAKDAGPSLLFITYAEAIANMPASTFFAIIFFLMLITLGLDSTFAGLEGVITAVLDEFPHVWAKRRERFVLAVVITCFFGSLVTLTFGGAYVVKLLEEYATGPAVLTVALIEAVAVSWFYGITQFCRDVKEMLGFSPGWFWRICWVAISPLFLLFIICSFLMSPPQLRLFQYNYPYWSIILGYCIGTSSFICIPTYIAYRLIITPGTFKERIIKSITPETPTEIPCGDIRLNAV

SMILES | IC50 [1] [nM] | IC50 [2] [nM] | IC50 [3] [nM]
CCCn1c(-c2ccccc2)cc(C(=O)NCCCN2CCN(c3cccc(Cl)c3)CC2)c1C [Example 6, N-(3-(4-(3-chlorophenyl)piperazin-1-yl)propyl)-2-methyl-5-phenyl-1-propyl-1H-pyrrole-3-carboxamide] | 191 | 93 | 273
CCn1c(-c2ccccc2)cc(C(=O)NCCCCN2CCN(c3cccc(Cl)c3Cl)CC2)c1C [Example 43, N-(4-(4-(2,3-dichlorophenyl)piperazin-1-yl)butyl)-1-ethyl-2-methyl-5-phenyl-1H-pyrrole-3-carboxamide hydrochloride] | 28 | 64 | 28
Cc1[nH]c(-c2ccccc2)c(C)c1C(=O)NCCN1CCN(c2cccc(Cl)c2Cl)CC1 [Example 76, N-(2-(4-(2,3-dichlorophenyl)piperazin-1-yl)ethyl)-2,4-dimethyl-5-phenyl-1H-pyrrole-3-carboxamide hydrochloride] | 37 | 162 | 13
C=CCCc1cc(C(=O)NCCCN2CCN(c3cccc(Cl)c3Cl)CC2)c(C)[nH]1 [Example 135, 5-(but-3-enyl)-N-(3-(4-(2,3-dichlorophenyl)piperazin-1-yl)propyl)-2-methyl-1H-pyrrole-3-carboxamide] | 65 | 144 | 157
CCCn1c(-c2ccccc2)cc(C(=O)NCCCN2CCN(c3ccccc3OC)CC2)c1C [Example 84, N-(3-(4-(2-Methoxyphenyl)piperazin-1-yl)propyl)-2-methyl-5-phenyl-1-propyl-1H-pyrrole-3-carboxamide] | 953 | 1080 | 1410
COc1cccc(-c2cc(C(=O)NCCCN3CCN(c4cccc(Cl)c4Cl)CC3)c(C)[nH]2)c1 [Example 83, N-(3-(4-(2,3-dichlorophenyl)piperazin-1-yl)propyl)-5-(3-methoxyphenyl)-2-methyl-1H-pyrrole-3-carboxamide hydrochloride] | 20 | 59 | 20
Cc1c(Cl)cccc1N1CCN(CCNC(=O)c2cc(C(C)(C)C)n(C)c2C)CC1 [Example 187, 5-tert-butyl-N-(2-(4-(3-chloro-2-methylphenyl)piperazin-1-yl)ethyl)-1,2-dimethyl-1H-pyrrole-3-carboxamide] | 54 |  | 210
Cc1cccc(N2CCN(CCCNC(=O)c3cc(-c4ccc(Cl)cc4)n(C)c3C)CC2)c1C [Example 61, 5-(4-chlorophenyl)-N-(3-(4-(2,3-dimethylphenyl)piperazin-1-yl)propyl)-1,2-dimethyl-1H-pyrrole-3-carboxamide hydrochloride] | 213 | 129 | 129
Cc1c(C(=O)NCCCN2CCN(c3cccc(Cl)c3Cl)CC2)cc(-c2ccc(Cl)cc2)n1C [Example 62, 5-(4-chlorophenyl)-N-(3-(4-(2,3-dichlorophenyl)piperazin-1-yl)propyl)-1,2-dimethyl-1H-pyrrole-3-carboxamide hydrochloride] | 232 | 733 | 39
Cc1c(C(=O)NCCCN2CCN(c3cccc(Cl)c3Cl)CC2)cc(-c2ccccn2)n1C [Example 92, N-(3-(4-(2,3-dichlorophenyl)piperazin-1-yl)propyl)-1,2-dimethyl-5-(pyridin-2-yl)-1H-pyrrole-3-carboxamide dihydrochloride] | 43 | 110 | 267
CCCn1c(-c2ccccc2)cc(C(=O)NCCCN2CCN(c3ccc(OC)cc3)CC2)c1C [Example 87, N-(3-(4-(4-methoxyphenyl)piperazin-1-yl)propyl)-2-methyl-5-phenyl-1-propyl-1H-pyrrole-3-carboxamide dihydrochloride] | 647 | 628 | 4830
C=CCCc1cc(C(=O)NCCCN2CCN(c3cccc(Cl)c3Cl)CC2)c(C)n1C [Example 136, 5-(but-3-enyl)-N-(3-(4-(2,3-dichlorophenyl)piperazin-1-yl)propyl)-1,2-dimethyl-1H-pyrrole-3-carboxamide] | 108 | 347 | 173
CCn1c(C(C)(C)C)cc(C(=O)NCCCN2CCN(c3cccc(C)c3C)CC2)c1C [Example 190, 5-tert-butyl-N-(3-(4-(2,3-dimethylphenyl)piperazin-1-yl)propyl)-1-ethyl-2-methyl-1H-pyrrole-3-carboxamide] | 386 |  | 1140
Cc1[nH]c(-c2ccccc2)cc1C(=O)NCCCN1CCN(c2cccc(Cl)c2)CC1 [Example 23, N-(3-(4-(3-chlorophenyl)piperazin-1-yl)propyl)-2-methyl-5-phenyl-1H-pyrrole-3-carboxamide] | 245 | 92 | 280
CCCn1c(-c2ccccc2)cc(C(=O)NCCCN2CCN(c3cccc(Cl)c3Cl)CC2)c1Cl [Example 116] | 69 | 1090 | 136
O=C(NCCCN1CCN(c2cccc(Cl)c2Cl)CC1)c1cc(-c2ccccc2)[nH]c1Cl [Example 114, 2-chloro-N-(3-(4-(2,3-dichlorophenyl)piperazin-1-yl)propyl)-5-phenyl-1H-pyrrole-3-carboxamide] | 22 | 59 | 107
Cc1cccc(N2CCN(CCCNC(=O)c3cc(-c4ccccc4)n(C)c3C)CC2)c1C [Example 3, N-(3-(4-(2,3-dimethylphenyl)piperazin-1-yl)propyl)-1,2-dimethyl-5-phenyl-1H-pyrrole-3-carboxamide] | 57 | 11.8 | 133
CCCCc1cc(C(=O)NCCCN2CCN(c3cccc(Cl)c3Cl)CC2)c(C)[nH]1 [Example 137, 5-butyl-N-(3-(4-(2,3-dichlorophenyl)piperazin-1-yl)propyl)-2-methyl-1H-pyrrole-3-carboxamide] | 68 | 62 | 133
Cc1c(C(=O)NCCN2CCN(c3cccc(Cl)c3Cl)CC2)cc(C(C)(C)C)n1C [Example 169, 5-tert-butyl-N-(2-(4-(2,3-dichlorophenyl)piperazin-1-yl)ethyl)-1,2-dimethyl-1H-pyrrole-3-carboxamide] | 57 |  | 
Cc1cccc(N2CCN(CCNC(=O)c3cc(C(C)(C)C)n(C)c3C)CC2)c1C [Example 189, 5-tert-butyl-N-(2-(4-(2,3-dimethylphenyl)piperazin-1-yl)ethyl)-1,2-dimethyl-1H-pyrrole-3-carboxamide] |  |  | 227
Cc1c(C(=O)NCCN2CCN(c3cccc(Cl)c3F)CC2)cc(C(C)(C)C)n1C [Example 186, 5-tert-butyl-N-(2-(4-(3-chloro-2-fluorophenyl)piperazin-1-yl)ethyl)-1,2-dimethyl-1H-pyrrole-3-carboxamide] | 121 |  | 293
Cc1c(Cl)cccc1N1CCN(CCNC(=O)c2cc(-c3ccccc3)n(C)c2C)CC1 [Example 184, N-(2-(4-(3-chloro-2-methylphenyl)piperazin-1-yl)ethyl)-1,2-dimethyl-5-phenyl-1H-pyrrole-3-carboxamide] | 152 |  | 233
Cc1ccc2cccc(N3CCN(CCNC(=O)c4cc(C(C)(C)C)n(C)c4C)CC3)c2n1 [Example 188, 5-tert-butyl-1,2-dimethyl-N-(2-(4-(2-methylquinolin-8-yl)piperazin-1-yl)ethyl)-1H-pyrrole-3-carboxamide] | 1480 |  | 1500
Cc1ccc2cccc(N3CCN(CCNC(=O)c4cc(-c5ccccc5)n(C)c4C)CC3)c2n1 [Example 185, 1,2-dimethyl-N-(2-(4-(2-methylquinolin-8-yl)piperazin-1-yl)ethyl)-5-phenyl-1H-pyrrole-3-carboxamide] | 761 |  | 554

From patent US8895558B2, “Arylpiperazine-containing pyrrole 3-carboxamide derivatives for treating depressive disorders” (Green Cross Corporation, priority 2008, dated 2014)
